The values that follow are results of earlier work, collected in patent publication US20190321375A1, “METHOD OF ADMINISTERING A NE[…] EFFECT ELECTROENCEPHALOGRAPHIC (EEG) BURST SUPPRESSION” (MARINUS PHARMACEUTICALS, INC., priority 2016, published 2019).

Read-outs that look alike come from different tables or passages of the source.

What is called half-life is the time needed for the level to fall by half in the phase considered.

Series [1] relates to patients. The following applies: induction bolus.
The conditions of series [2]: in vivo.

As to `CC(C)c1cccc(C(C)C)c1O` [propofol], in series [1], the “entry into burst suppression” value is “can enter burst suppression directly from the awake state”.

For the compound `CC(=O)[C@H]1CC[C@H]2[C@@H]3CC[C@H]4C[C@H](O)CC[C@]4(C)[C@H]3CC[C@]12C` [Allopregnanolone, 3α,5α-tetrahydroprogesterone], the half-life (human plasma) is 45 min. Also, the oral availability result in series [2] is “poor oral availability”.

On to `CC(=O)[C@H]1CC[C@H]2[C@@H]3CC[C@H]4C[C@](C)(O)CC[C@]4(C)[C@H]3CC[C@]12C` [Ganaxolone, 3α-hydroxy, 3β-methyl-5α-pregnan-20-one], for which, where the note is “human plasma following oral administration”, the half-life result is listed as “approximately 20 hours”. For the same compound, for the setting “therapeutic blood levels are reached quickly”, the Tmax result is reported as “short”. Also, the oral availability entry in series [2] is “poor oral availability”.
